{
  "source": "patent US12485157B2",
  "about": "“Method of treating COVID-19” (Pfizer Inc., priority 2020, dated 2025)",
  "data": [
    {"biological_target": "SARS-CoV-2 3CL protease (Severe acute respiratory syndrome coronavirus 2 (2019-nCoV) (SARS-CoV-2), UniProt P0DTD1)", "assay": "SARS-CoV-2 Coronavirus 3C Protease FRET Assay", "type": "biochemical", "conditions": "FRET assay control inhibitor", "values": [
      {"smiles": "COc1cccc2[nH]c(C(=O)N[C@@H](CC(C)C)C(=O)N[C@@H](C[C@@H]3CCNC3=O)C(=O)CO)cc12", "note": "[PF-835231, reference compound]", "inhibition of SARS-CoV-2 3CLpro (fluorescent signal reduced)": "potent inhibitor"}
    ]},
    {"biological_target": "SARS-CoV-2 3CL protease (Severe acute respiratory syndrome coronavirus 2 (2019-nCoV) (SARS-CoV-2), UniProt P0DTD1)", "assay": "SARS-CoV-2 Coronavirus 3C Protease FRET Assay", "type": "biochemical", "conditions": "read-out: 3CL Protease Geometric Mean Ki", "units": {"Ki": "nM"}, "values": [
      {"smiles": "COc1cccc2[nH]c(C(=O)N[C@@H](CC(C)C)C(=O)N[C@@H](C[C@@H]3CCNC3=O)C(=O)COC(C)=O)cc12", "note": "[Example 1, (3S)-3-({N-[(4-methoxy-1H-indol-2-yl)carbonyl]-L-leucyl}amino)-2-oxo-4-[(3S)-2-oxopyrrolidin-3-yl]butyl acetate]", "Ki": 19.4},
      {"smiles": "COc1cccc2[nH]c(C(=O)N[C@@H](CC(C)C)C(=O)N[C@@H](C[C@@H]3CCNC3=O)C(=O)COC(=O)C(C)(C)C)cc12", "note": "[Example 2, (3S)-3-({N-[(4-methoxy-1H-indol-2-yl)carbonyl]-L-leucyl}amino)-2-oxo-4-[(3S)-2-oxopyrrolidin-3-yl]butyl pivalate]", "Ki": 94.1},
      {"smiles": "COc1cccc2[nH]c(C(=O)N[C@@H](CC(C)C)C(=O)N[C@@H](C[C@@H]3CCNC3=O)C(=O)COC(=O)c3ccccc3)cc12", "note": "[Example 3, (3S)-3-({N-[(4-methoxy-1H-indol-2-yl)carbonyl]-L-leucyl}amino)-2-oxo-4-[(3S)-2-oxopyrrolidin-3-yl]butyl benzoate]", "Ki": 233},
      {"smiles": "COc1cccc2[nH]c(C(=O)N[C@@H](CC(C)C)C(=O)N[C@@H](C[C@@H]3CCNC3=O)C(=O)COC(=O)c3ccc(C)cc3)cc12", "note": "[Example 4, (3S)-3-({N-[(4-methoxy-1H-indol-2-yl)carbonyl]-L-leucyl}amino)-2-oxo-4-[(3S)-2-oxopyrrolidin-3-yl]butyl 4-methylbenzoate]", "Ki": 17.7},
      {"smiles": "COc1cccc2[nH]c(C(=O)N[C@@H](CC(C)C)C(=O)N[C@@H](C[C@@H]3CCNC3=O)C(=O)COC(=O)c3ccc(F)cc3)cc12", "note": "[Example 5, (3S)-3-({N-[(4-methoxy-1H-indol-2-yl)carbonyl]-L-leucyl}amino)-2-oxo-4-[(3S)-2-oxopyrrolidin-3-yl]butyl 4-fluorobenzoate]", "Ki": 16.3},
      {"smiles": "COc1cccc2[nH]c(C(=O)N[C@@H](CC(C)C)C(=O)N[C@@H](C[C@@H]3CCNC3=O)C(=O)COC(=O)c3ccc(C#N)cc3)cc12", "note": "[Example 6, (3S)-3-({N-[(4-methoxy-1H-indol-2-yl)carbonyl]-L-leucyl}amino)-2-oxo-4-[(3S)-2-oxopyrrolidin-3-yl]butyl 4-cyanobenzoate]", "Ki": 1.9},
      {"smiles": "COc1ccc(C(=O)OCC(=O)[C@H](C[C@@H]2CCNC2=O)NC(=O)[C@H](CC(C)C)NC(=O)c2cc3c(OC)cccc3[nH]2)cc1", "note": "[Example 7, (3S)-3-({N-[(4-methoxy-1H-indol-2-yl)carbonyl]-L-leucyl}amino)-2-oxo-4-[(3S)-2-oxopyrrolidin-3-yl]butyl 4-methoxybenzoate]", "Ki": 33.4},
      {"smiles": "COc1cccc2[nH]c(C(=O)N[C@@H](CC(C)C)C(=O)N[C@@H](C[C@@H]3CCNC3=O)C(=O)COC(=O)c3ccc(Cl)cc3)cc12", "note": "[Example 8, (3S)-3-({N-[(4-methoxy-1H-indol-2-yl)carbonyl]-L-leucyl}amino)-2-oxo-4-[(3S)-2-oxopyrrolidin-3-yl]butyl 4-chlorobenzoate]", "Ki": 18.8},
      {"smiles": "COc1cccc2[nH]c(C(=O)N[C@@H](CC(C)C)C(=O)N[C@@H](C[C@@H]3CCNC3=O)C(=O)COC(=O)c3c(Cl)cccc3Cl)cc12", "note": "[Example 9, (3S)-3-({N-[(4-methoxy-1H-indol-2-yl)carbonyl]-L-leucyl}amino)-2-oxo-4-[(3S)-2-oxopyrrolidin-3-yl]butyl 2,6-dichlorobenzoate]", "Ki": 0.3},
      {"smiles": "COc1cccc2[nH]c(C(=O)N[C@@H](CC(C)C)C(=O)N[C@@H](C[C@@H]3CCNC3=O)C(=O)COC(=O)c3c(C)cccc3C)cc12", "note": "[Example 10, (3S)-3-({N-[(4-methoxy-1H-indol-2-yl)carbonyl]-L-leucyl}amino)-2-oxo-4-[(3S)-2-oxopyrrolidin-3-yl]butyl 2,6-dimethylbenzoate]", "Ki": 3.4},
      {"smiles": "COc1cccc2[nH]c(C(=O)N[C@@H](CC(C)C)C(=O)N[C@@H](C[C@@H]3CCNC3=O)C(=O)COC(=O)c3c(F)cccc3F)cc12", "note": "[Example 11, (3S)-3-({N-[(4-methoxy-1H-Indol-2-yl)carbonyl]-L-leucyl}amino)-2-oxo-4-[(3S)-2-oxopyrrolidin-3-yl]butyl 2,6-difluorobenzoate]", "Ki": 1.3},
      {"smiles": "COc1cccc(OC)c1C(=O)OCC(=O)[C@H](C[C@@H]1CCNC1=O)NC(=O)[C@H](CC(C)C)NC(=O)c1cc2c(OC)cccc2[nH]1", "note": "[Example 12, (3S)-3-({N-[(4-methoxy-1H-indol-2-yl)carbonyl]-L-leucyl}amino)-2-oxo-4-[(3S)-2-oxopyrrolidin-3-yl]butyl 2,6-dimethoxybenzoate]", "Ki": 15.7},
      {"smiles": "COc1cccc2[nH]c(C(=O)N[C@@H](CC(C)C)C(=O)N[C@@H](C[C@@H]3CCNC3=O)C(=O)COC(=O)c3ccc(C#N)cc3F)cc12", "note": "[Example 14, (3S)-3-({N-[(4-methoxy-1H-indol-2-yl)carbonyl]-L-leucyl}amino)-2-oxo-4-[(3S)-2-oxopyrrolidin-3-yl]butyl 4-cyano-2-fluorobenzoate]", "Ki": 0.2},
      {"smiles": "COc1cccc2[nH]c(C(=O)N[C@@H](CC(C)C)C(=O)N[C@@H](C[C@@H]3CCNC3=O)C(=O)COC(=O)c3ccccc3C#N)cc12", "note": "[Example 15, (3S)-3-({N-[(4-methoxy-1H-indol-2-yl)carbonyl]-L-leucyl}amino)-2-oxo-4-[(3S)-2-oxopyrrolidin-3-yl]butyl 2-cyanobenzoate]", "Ki": 0.4}
    ]}
  ]
}
